Reference: US10717757B2, “Ketolides having antibacterial activity” (BIOPHARMATI SA, priority 2016, dated 2020)
Converted amounts (≈) assume the structure as drawn. Where two headings read alike, the source gives them in different places.

What was measured:
[1] = system: S. pneumoniae ATCC 49619 (CLSI QC strain); test: Minimum inhibitory concentration (MIC), broth microdilution, QC strain; type: cell-based, Streptococcus pneumoniae; conditions: MIC in duplicates
Protocol: (§1) Protocols for Determining Minimum Inhibitory Concentration (MIC) of Test Compounds Against Streptococcus Pneumoniae Strains
(§2) The test strains are revived from frozen stock on blood agar plates and incubated at 35±2° C. for 18-20 hours in 5% CO2. Colonies are directly suspended from an overnight grown agar culture in CAMHB/saline and optical density adjusted to 0.5 McFarland turbidity standard (1-2×10^8 cfu/mL). Adjusted cultures are further diluted 1:100 using CAMHB such that after inoculation each well finally contains ˜5×10^5 cfu/mL. For broth dilution testing of Streptococcus species, CAMHB is supplemented with 2.5-5% v/v LHB. Colony counts of inoculum suspension is estimated by ten-fold serial dilutions and plating each dilution on agar plate. After incubation, the plates are observed for growth and microbial counts determined.
(§3) Compounds are weighed and dissolved in water/DMSO/other solvent to yield 1 mg/mL stock solution. Serial two-fold dilutions of the test compounds and reference antibiotics are prepared. 50 μL of the diluted drug solutions are dispensed in wells of microtiter trays (96 well).
(§4) To each of the wells of the microtiter tray, 50 μL of the diluted organism are inoculated to obtain a final inoculum density of ˜5×10^5 cfu/mL. Broth control, compound control and organism control wells are set up.
(§5) MIC testing are done in duplicates
(§6) MIC is defined as the lowest concentration of an antimicrobial agent that prevents visible growth of a microorganism in broth dilution susceptibility test.
(§7) After incubation period, growth of organism in the wells are detected by unaided eye facilitated by a viewing device. The amount of growth in the drug-containing wells are compared with the amount of growth in the organism-control wells.

[2] = system: S. pneumoniae AUCC479, macrolide & penicillin sensitive; test: Minimum inhibitory concentration (MIC), broth microdilution, AUCC479; type: cell-based, Streptococcus pneumoniae
Protocol: as §1, §2, §3, §4, §5, §6, §7

[3] = system: S. pneumoniae AUCC488, macrolide & penicillin resistant; test: Minimum inhibitory concentration (MIC), broth microdilution, AUCC488; type: cell-based, Streptococcus pneumoniae
Protocol: as §1, §2, §3, §4, §5, §6, §7

[4] = system: S. pneumoniae AUCC489, macrolide & penicillin resistant; test: Minimum inhibitory concentration (MIC), broth microdilution, AUCC489; type: cell-based, Streptococcus pneumoniae
Protocol: as §1, §2, §3, §4, §5, §6, §7

[5] = system: S. pneumoniae AUCC483, macrolide resistant & penicillin sensitive; test: Minimum inhibitory concentration (MIC), broth microdilution, AUCC483; type: cell-based, Streptococcus pneumoniae
Protocol: as §1, §2, §3, §4, §5, §6, §7

CYP3A4 = CYP3A4 (Homo sapiens, UniProt P08684); test: Cytochrome P4503A4 inhibition assay, human liver microsomes, LC-MS/MS probe substrate method; conditions: for IC50: human liver microsomes 0.1 mg/mL, 10 min; for CYP3A4 inhibition in comparison with solithromycin and ketoconazole: summary of Table 1
Protocol: Cytochrome P4503A4 Inhibition Assay for Determining IC50
The potential of the compound to inhibit CYP 3A4 was tested by the LC-MS/MS based probe substrate method using human liver microsomes. Midazolam or testosterone, which are metabolized to hydroxymidazolam or hydroxytestosterone by CYP 3A4, were the probe substrates used. […] NADPH was added as the cofactor. […] After incubation for ten minutes, the amount of 1-hydroxymidazolam or 6β-hydroxyltestosterone formed was determined by LC-MS/MS method as a measure of enzyme activity. Percent inhibition of enzyme activity was calculated based on the amount of metabolites (1-hydroxymidazolam or 6β-hydroxyltestosterone) formed for each sample relative to the basal control and plotted in a curve versus the compound concentration to obtain the IC50.

[6] = read-out: IC50 CYP3A4 (midazolam), 5 μM midazolam
[7] = read-out: IC50 CYP3A4 (testosterone), 50 μM testosterone

Chain of CYP3A4 (P08684 whole entry): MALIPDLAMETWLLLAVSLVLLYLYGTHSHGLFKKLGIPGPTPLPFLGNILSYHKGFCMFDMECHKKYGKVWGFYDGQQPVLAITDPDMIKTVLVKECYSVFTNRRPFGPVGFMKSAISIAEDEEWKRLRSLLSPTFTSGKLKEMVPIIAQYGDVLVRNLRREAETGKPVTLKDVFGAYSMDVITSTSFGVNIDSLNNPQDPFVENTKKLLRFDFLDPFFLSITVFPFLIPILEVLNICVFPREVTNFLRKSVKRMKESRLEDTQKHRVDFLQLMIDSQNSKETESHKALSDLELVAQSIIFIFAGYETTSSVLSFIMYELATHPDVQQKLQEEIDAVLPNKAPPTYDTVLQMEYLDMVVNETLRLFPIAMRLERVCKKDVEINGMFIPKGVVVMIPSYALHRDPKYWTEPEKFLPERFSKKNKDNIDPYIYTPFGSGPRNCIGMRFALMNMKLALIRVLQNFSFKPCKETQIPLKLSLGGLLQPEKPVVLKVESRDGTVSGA

Compound	MIC Strep. Pneumoniae ATCC49619 QC strain [1] [µg/mL]	MIC Strep. Pneumoniae AUCC 479 penS, macS [2] [µg/mL]	MIC Strep. Pneumoniae AUCC 488 penR, macR M or iMLS [3] [µg/mL]	MIC Strep. Pneumoniae AUCC 489 penR, macR cMLS [4] [µg/mL]	MIC Strep. Pneumoniae AUCC 483 penS, macR cMLS [5] [µg/mL]	IC50 (CYP3A4; [6]) [µM]	CYP3A4 inhibition in comparison with solithromycin and ketoconazole (CYP3A4)	IC50 (CYP3A4; [7]) [µM]	MIC ([1]; Streptococcus pneumoniae, ATCC49619 QC strain, read-out: MIC Strep. Pneumoniae ATCC49619 QC strain) [µg/mL]
CC[C@H]1OC(=O)[C@H](C)C(=O)[C@H](C)[C@@H](O[C@@H]2O[C@H](C)C[C@H](N(C)C)[C@H]2O)[C@](C)(OC/C=C/c2cnc3ccccc3c2)C[C@@H](C)C(=O)[C@H](C)[C@H]2N(CCOC)C(=O)O[C@]12C [Compound 13E, (3aS,4R,7R,9R,10R,11R,13R,15R,15aR)-10-{[(2S,3R,4S,6R)-4-(dimethylamino)-3-hydroxy-6-methyloxan-2-yl]oxy}-4-ethyl-1-(2-methoxyethyl)-3a,7,9,11,13,15-hexamethyl-11-{[(2E)-3-(quinolin-3-yl)prop-2-en-1-yl]oxy}-tetradecahydro-1H-oxacyclotetradeca[4,3-d][1,3]oxazole-2,6,8,14-tetrone]	0.06 to 0.12	0.03 to 0.06	0.25 to 0.5	>4	>4	–	–	–	–
CC[C@H]1OC(=O)[C@H](C)C(=O)[C@H](C)[C@@H](O[C@@H]2O[C@H](C)C[C@H](N(C)C)[C@H]2O)[C@](C)(OC/C=C/c2cnc3ccccc3c2)C[C@@H](C)C(=O)[C@H](C)[C@H]2N(CC#N)C(=O)O[C@]12C [Compound 13H, 2-[(3aS,4R,7R,9R,10R,11R,13R,15R,15aR)-10-{[(2S,3R,4S,6R)-4-(dimethylamino)-3-hydroxy-6-methyloxan-2-yl]oxy}-4-ethyl-3a,7,9,11,13,15-hexamethyl-2,6,8,14-tetraoxo-11-{[(2E)-3-(quinolin-3-yl)prop-2-en-1-yl]oxy}-tetradecahydro-1H-oxacyclotetradeca[4,3-d][1,3]oxazol-1-yl]acetonitrile]	0.03 to 0.06	0.008 to 0.015	0.25 to 1	0.25 to 1	2 to 4	1.9	lower IC50 inhibition of CYP3A4 inhibition	–	–
CC[C@H]1OC(=O)[C@H](C)C(=O)[C@H](C)[C@@H](O[C@@H]2O[C@H](C)C[C@H](N(C)C)[C@H]2O)[C@](C)(OC/C=C/c2cnc3ccccc3c2)C[C@@H](C)C(=O)[C@H](C)[C@H]2N(CC3CCN(C)CC3)C(=O)O[C@]12C [Compound 13L, (3aS,4R,7R,9R,10R,11R,13R,15R,15aR)-10-{[(2S,3R,4S,6R)-4-(dimethylamino)-3-hydroxy-6-methyloxan-2-yl]oxy}-4-ethyl-3a,7,9,11,13,15-hexamethyl-1-[(1-methylpiperidin-4-yl)methyl]-11-{[(2E)-3-(quinolin-3-yl)prop-2-en-1-yl]oxy}-tetradecahydro-1H-oxacyclotetradeca[4,3-d][1,3]oxazole-2,6,8,14-tetrone]	0.06 (≈ 0.0684 µM)	0.03 (≈ 0.0342 µM)	0.5 to 1	0.5 to 1	0.5 to 1	6.3	lower IC50 inhibition of CYP3A4 inhibition	–	–
CCC1OC(=O)C(C)C(=O)C(C)C(OC2OC(C)CC(N(C)C)C2O)C(C)(OCC=Cc2cnc3ccccc3c2)CC(C)C(=O)C(C)C2N(CC3CCN(C)C3)C(=O)OC12C [Compound 13N, (3aS,4R,7R,9R,10R,11R,13R,15R,15aR)-10-{[(2S,3R,4S,6R)-4-(dimethylamino)-3-hydroxy-6-methyloxan-2-yl]oxy}-4-ethyl-3a,7,9,11,13,15-hexamethyl-1-{[(3S)-1-methylpyrrolidin-3-yl]methyl}-11-{[(2E)-3-(quinolin-3-yl)prop-2-en-1-yl]oxy}-tetradecahydro-1H-oxacyclotetradeca[4,3-d][1,3]oxazole-2,6,8,14-tetrone]	0.03 to 0.06	0.03 (≈ 0.0348 µM)	0.5 to 1	0.5 to 1	0.5 to 1	–	lower IC50 inhibition of CYP3A4 inhibition	7.7	–
CC[C@H]1OC(=O)[C@H](C)[C@@H](O[C@H]2C[C@@](C)(OC)[C@@H](O)[C@H](C)O2)[C@H](C)[C@@H](O[C@@H]2O[C@H](C)C[C@H](N(C)C)[C@H]2O)[C@](C)(O)C[C@@H](C)C(=O)[C@H](C)[C@@H](O)[C@]1(C)O [erythromycin, reference compound]	–	0.03 to 0.06	8 to 16	8 to 32	64 (≈ 87.2 µM)	–	–	–	0.03 to 0.06 (≈ 0.0409 to 0.0818 µM)
(3aS,4R,7R,9R,10R,11R,13R,15R,15aR)-1-[2-(diethylamino)ethyl]-10{[(2S,3R,4S,6R)-4-(dimethylamino)-3-hydroxy-6-methyloxan-2-yl]oxy}-4-ethyl-3a,7,9,11,13,15-hexamethyl-11-{[(2E)-3-(quinolin-3-yl)prop-2-en-1-yl]oxy}-tetradecahydro-1H-oxacyclotetradeca[4,3-d][1,3]oxazole-2,6,8,14-tetrone [Compound 13A]	0.015 to 0.06	0.008 to 0.015	0.12 to 0.25	0.12 to 0.25	0.12 to 0.25	1.2	lower IC50 inhibition of CYP3A4 inhibition	–	–
(3aS,4R,7R,9R,10R,11R,13R,15R,15aR)-1-[3-(azetidin-1-yl)propyl]-10-{[(2S,3R,4S,6R)-4-(dimethylamino)-3-hydroxy-6-methyloxan-2-yl]oxy}-4-ethyl-3a,7,9,11,13,15-hexamethyl-11-{[(2E)-3-(quinolin-3-yl)prop-2-en-1-yl]oxy}-tetradecahydro-1H-oxacyclotetradeca[4,3-d][1,3]oxazole-2,6,8,14-tetrone [Compound 13M]	0.03 to 0.06	0.015 to 0.03	0.5 to 1	0.25 to 0.5	0.25 to 0.5	–	lower IC50 inhibition of CYP3A4 inhibition	10.3	–
(3aS,4R,7R,9R,10R,11R,13R,15R,15aR)-10-{[(2S,3R,4S,6R)-4-(dimethylamino)-3-hydroxy-6-methyloxan-2-yl]oxy}-1-[2-(dimethylamino)ethyl]-4-ethyl-3a,7,9,11,13,15-hexamethyl-11-{[(2E)-3-(quinolin-3-yl)prop-2-en-1-yl]oxy}-tetradecahydro-1H-oxacyclotetradeca[4,3-d][1,3]oxazole-2,6,8,14-tetrone [Compound 13F, reference compound]	0.015 to 0.06	0.0015	0.25	0.12 to 0.25	0.25 to 0.5	1.1	–	–	–
